Assay results as given in US20070003641A1, “Synergistic pharmaceutical compositions useful in prevention and treatment of beta-amyloid protein-induced disease” (priority 2005, published 2007).

Legend:
HUVEC cells = test: MTT reduction assay: protection of HUVEC cells from βA insult; assay type: cell-based, human
Method: (§1) The neuronal cell protection by the extract or combination of extracts was determined by observing the differences in the cell viability of βA (both 25-35 and 1-42) treated cells, βA (both 25-35 and 1-42) treated cells further including an extract or a combination of extracts according to the invention, and a DMSO control.
(§2) The degree of βA insult was measured by 3-[4,5-dimethylthiazol-2-yl]-2,5-diphenyltetrazolium bromide (MTT) reduction assay. See Kim et al., Neurosci Lett 303, 57 (2001), Park et al., J Nat Prod 65, 1227 (2002) and Kim et al., Plant Medica 68, 375 (2002). The detection of cell growth or cell death can be determined by observing the conversion of MTT to the colored product, MTT formazan, the concentration of which can be measured colorimetrically at 550 nm. See Kim et al., Neurosci Lett 303, 57 (2001).
(§3) The extract or combination of extracts' ability to protect PC12 cells from βA insult was investigated according to the published procedure. See Kim et al., Neurosci Lett 303, 57 (2001), Park et al., J Nat Prod 65, 1227 (2002) and Kim et al., Plant Medica 68, 375 (2002). For the bioassay, 90 μL of exponentially growing cells (2,000 cells per mL) were plated in 96-well tissue culture plates. Cells were incubated with βA(1-42) (2.0 μg/mL, prepared from a stock solution (1.0 mg/mL in dimethyl sulfoxide (DMSO))) and test compound at various concentrations (50, 10, 2, 0.4, and 0.08 μg/mL) for 24 hours. The final DMSO concentration was less than 1%. The extract or combination of extracts' ability to protect PC12 cells from βA(1-42) insult was determined by measuring the cell's potential to reduce MTT with respect to the treatment of cells with 1% DMSO only and the treatment of cells with […] βA(1-42) and 1% DMSO without the presence of test extract or a combination of extracts. After the incubation of cells in MTT solution (25 μL per well, 1 mg/mL stock solution) for 1 h at 37° C., 100 μL Lysing buffer (50% aqueous dimethylformamide (DMF) and 20% sodium dodecyl sulfate (SDS) at pH 4.7) was added and incubated overnight at 37° C. Optical density of the resulting solutions was colorimetrically determined at 550 nm using a microplate reader. Dose-response curves were prepared and the results were expressed as ED50 values in μg/mL (Table 1). Curcumin and (±)-α-tocopherol (vitamin-E) were used as reference compounds. Bioassay using βA(25-35) was similarly performed. The extract or combination of extracts' ability to protect IMR32 and HUVEC cells from βA insult was also similarly investigated.
(§4) PC12 cells were obtained from the American Type Culture Collection (Rockville, Md.). Cells were routinely cultured on a polystyrene-coated Corning tissue culture plate (Corning, New York, N.Y.). Culture media and supplements were obtained from Life Technologies (Grand Island, N.Y.). Cells were maintained in high glucose Dulbecco's modified Eagle medium, 10% horse serum, 5% fetal calf serum, and 1% penicillin/streptomycin. See Kim et al., Neurosci Lett 303, 57 (2001), Park et al., J Nat Prod 65, 1227 (2002) and Kim et al., Plant Medica 68, 375 (2002). IMR32 human neuroblastoma cells were obtained from the American Type Culture Collection (ATCC). Normal umbilical human vein endothelial (HUVEC) cells were obtained from Clonetics (San Diego, Calif.). Cells were routinely cultured on a polystyrene-coated Corning tissue culture plate (Corning, New York, N.Y.). IMR32 cells were grown in high glucose Dulbecco's Modified Eagle Medium (DMEM), 10% horse serum, 5% fetal calf serum, and 1% penicillin/streptomycin. HUVEC cells were grown in EGM-2 Bullet Kit (Clonetics, San Diego, Calif.). For the bioassay using βA(25-35), 100 μl of exponentially growing IMR32 and HUVEC cells (2,000 and 500 cells per ml, respectively) were plated in 96-well tissue culture plates. A different number of cells per ml was used for the experiment because of the cell size difference of HUVEC cells with respect to IMR32 cells and PC12 cells. […]

[1] = system: IMR32 human neuroblastoma cells; test: MTT reduction assay: protection of IMR32 cells from βA insult; assay type: cell-based
Method: as §1, §2, §3, §4

PC12 cells = test: MTT reduction assay: protection of PC12 cells from βA insult; assay type: cell-based; settings: 24 hours
Method: as §1, §2, §3, §4

[2] = system: PC12, IMR32, and HUVEC cells; test: Cell protection from βA peptide insult, stated in words; assay type: cell-based
Method: as §1
The degree of βA insult was measured by 3-[4,5-dimethylthiazol-2-yl]-2,5-diphenyltetrazolium bromide (MTT) reduction assay. See Kim et al., Neurosci Lett 303, 57 (2001), Park et al., J Nat Prod 65, 1227 (2002) and Kim et al., Plant Medica 68, 375 (2002). The detection of cell growth or cell death can be determined by observing the conversion of MTT to the colored product, MTT formazan, the concentration of which can be measured colorimetrically at 550 nm. […]
The extract or combination of extracts' ability to protect PC12 cells from βA insult was investigated according to the published procedure. […] The extract or combination of extracts' ability to protect PC12 cells from βA(1-42) insult was determined by measuring the cell's potential to reduce MTT with respect to the treatment of cells with 1% DMSO only and the treatment of cells with 1.0 μg/mL βA(1-42) and 1% DMSO without the presence of test extract or a combination of extracts. […] Optical density of the resulting solutions was colorimetrically determined at 550 nm using a microplate reader. […]

Row | Molecule | ED50, cell protection against βA insult (HUVEC cells; βA(1-42)) [µg/mL] | ED50, cell protection against βA insult (HUVEC cells; βA(25-35)) [µg/mL] | ED50, cell protection against βA insult ([1]; βA(1-42)) [µg/mL] | ED50, cell protection against βA insult ([1]; βA(25-35)) [µg/mL] | ED50, cell protection against βA insult (PC12 cells; βA(1-42)) [µg/mL] | ED50, cell protection against βA insult (PC12 cells; βA(25-35)) [µg/mL] | protection of cells from βA peptide insult (in words) [2]
1 | CCCCC/C=C/C(=O)CCc1ccc(O)c(OC)c1 [6-shogaol [6S], 6-shogaol] | 5.5 | 5.9 | 6.1 | 6.3 | 5.7 | 5.4 | 
2 | COc1cc(C=CC(=O)CC(=O)C=Cc2ccc(O)c(OC)c2)ccc1O [curcumin, 1,7-bis(4-hydroxy-3-methoxyphenyl)-1,6-heptadiene-3,5-dione, reference compound] | 6.8 | 6.2 | 6.3 | 7.4 | 7.1 | 6.7 | 
3 | CCCCCCCCCCC(=O)CCc1ccc(O)c(OC)c1 [(45), [9]-dihydroshogaol] |  |  |  |  |  |  | effectively protected cells from βA peptide insult
4 | CC(C)c1cc2c(c(O)c1O)[C@@]13CCCC(C)(C)[C@@H]1[C@@H](O)C2OC3=O [RS-7] | 3.5 | 3.2 | 3.4 | 2.9 | 3.1 | 2.3 | 
5 | CC(C)c1cc(C=O)c2c(c1O)OC(=O)[C@@]21CCCC(C)(C)[C@@H]1C=O [RS-8] | 16.7 | 15.5 | 14.6 | 15.2 | 13.3 | 11.6 | 
6 | CCCCCCCCC=CC(=O)CCc1ccc(O)cc1 [(50), [9]-demothoxyshogaol] |  |  |  |  |  |  | effectively protected cells from βA peptide insult
7 | (±)-α-tocopherol [reference compound] | >50 | >50 | >50 | >50 | >50 | >50 | 
8 | CC(C)c1cc2c(c(O)c1O)[C@@]13CCCC(C)(C)[C@@H]1[C@H](OC3=O)[C@H]2O [RS-9] | 34.2 | 31.0 | 35.5 | 38.3 | 35.4 | 33.2 | 
